Results on two compounds are retold here after US20140288117A1, “USE OF CYSTEAMINE IN TREATING PARKINSON'S DISEASE” (Omega Bio-Pharma (I.P. 2) Ltd, priority 2010, published 2014).

Molecules are shown by their SMILES.

For series [1], the system named is reactive oxygen species (ROS). The series can be described thus: ROS level in substantia nigra cells by DCDHF-DA fluorescence. In kind it is in vivo, mice. To be noted: n = 8. The procedure:
(§1) C57/BL mice weighted 20-22 g were used. […] The control group was injected with 0.9% saline.
The ROS level was measured using 2′,7′-dichlorodihydrofluorescein diacetate (DCDHF-DA). DCDHF-DA which is cell-permeable and non-fluorescent, and, in the presence of ROS it is oxidized inside cells and transformed into a fluorescent compound, 2′,7′-dichlorofluorescein (DCDF), which remains trapped within the cell. To measure the ROS level in substantia nigra, isolated cells (10^5/ml) were incubated with 50 μM DCDHF-DA for 40 min at 37° C. and washed twice in PBS. The fluorescence was monitored in microplate reader (Liu, et al., 2009). For each sample, 10,000 cells were acquired. Data were expressed as an average of fluorescence intensity of analyzed cell population (mean fluorescence intensity±SD).

Series [2] deals with superoxide dismutase (SOD). The series can be described thus: SOD activity in substantia nigra (xanthine/xanthine oxidase system). Format: in vivo, mice. The conditions noted are these: n = 8. The procedure: as §1
(§2) The formation of thiobarbituric acid reactive species (TBARS) during an acid-heating reaction was determined by the absorbance at 532 nm. The rate of lipid peroxidation was expressed as nmol/mg protein. SOD activity was detected based on its ability to inhibit the superoxide anion free radical of O^2− generated by the xanthine/xanthine oxidase system. The absorbance at 550 nm was monitored and SOD levels were expressed as U/mg protein. The total glutathione (reduced and oxidized form of glutathione) was determined using glutathione reductase. Absorbance was measured at 412 nm using microplate reader. The standard curve was obtained from absorbance of the diluted commercial GSH that was incubated in the mixture as in samples. Results were reported as nmol TNB/mg protein.

Series [3] relates to glutathione (GSH) levels in the SNpc. The series can be described thus: Total glutathione (GSH) level in SNpc using glutathione reductase. In kind it is in vivo, mice. The conditions noted are these: mean±SD. The procedure:
as §1, §2

In series [4] the test system is malondialdehyde (MDA). Nature of the series: Malondialdehyde (MDA) / TBARS lipid peroxidation in substantia nigra. Format: in vivo, mice. The conditions noted are these: n = 8. As to the method: as §1, §2
The subject of series [5] is TH-immunoresponsive (TH-IR) neurons in the substantia nigra of MPTP-treated mice. The series can be described thus: Tyrosine hydroxylase immunohistochemistry: number of TH-IR neurons in substantia nigra. In kind it is in vivo. To be noted: mean±SD. As to the method:
as §1
Twenty-four hours later the last injection, mice were anesthetized with chloral hydrate (100 mg/kg). The mice were subjected to thoracotomy and perfusion with ice-cold 0.9% sodium chloride 50 ml, then with 4% paraformaldehyde (PFA) 100 ml in 0.01 M PBS through the left ventricular. After fixation, the brain was post-fixed and then cryoprotected in 30% sucrose for 24 h. The brains were sectioned through the substantia nigra (SN) coronally at 30 um thickness on a cryostat (Leica CM1900, Nussloch, Germany). Sections were collected in 0.01 M PBS and processed free floating. The free floating sections were washed 3 times in Tris-buffered saline (TBS), incubated with H2O2 (3%) for 30 min and blocked with 5% normal goat serum (NGS), 0.2% Triton X-100 in TBS. Sections were incubated for 24 h with primary rabbit anti-TH monoclonal antibody (1:10000) (Watanabe et al., “Protective effects of M, Matsubara, Imai Y, Araki T. neuronal nitric oxide synthase inhibitor in mouse brain against MPTP neurotoxicity: an immunohistological study,” Eur Neuropsychopharmacol. 14:93-104 (2004)). Sections were washed in PBS and incubated for 2 hr at room temperature in secondary antibodies: biotinylated goat anti-rabbit (1:500) diluted in blocking buffer. The sections were incubated for 2 hr at room temperature in horseradish peroxidase labeled avidin work […] solution (1:500). TH immunoreactivity was visualized in SN after incubation in DAB and Nickel sulfate salt for 5-10 min. Sections were mounted on slides, dried, dehydrated in graded ethanol, cleared in xylene, and mounted with DPX mounting medium and coverslip. To test the specificity of the immunostaining, control sections were processed in an identical manner but with the primary antibody omitted. After TH-staining, the image of the sections from the substantia nigra were digitalized with NIS-Elements imaging software (Nikon). The number of neurons was measured in the bilateral substantia nigra.

The subject of series [6] is brain-derived neurotrophic factor (BDNF). Nature of the series: BDNF concentration in substantia nigra by ABC-ELISA. To be noted: for BDNF concentration in substantia nigra: mean±SD. The procedure: C57/BL mice weighted 20-22 g were used. Mice were treated with cysteamine and/or induced by MPTP fresh preparations according to the group assignments. Group assignments (n=8/group) were as follows: (1) saline (control) group, (2) MPTP alone (see below), (3) cysteamine (CS) 20 mg/kg/d alone for two weeks, (4) CS 75 mg/kg/d alone for two weeks, (5) CS 20 mg/kg/d for total 14 days and MPTP was given from day 5 to 9, (6) CS 75 mg/kg/d for total 14 days and MPTP was given from day 5 to 9, (7) simultaneous administration of MPTP and CS 20 mg/kg/d for 5 days followed by CS for additional 9 days, (8) simultaneous administration of MPTP and CS 75 mg/kg/d for 5 days followed by CS for additional 9 days. The control group was injected with 0.9% saline. MPTP (20 mg/kg) was intraperitoneally (i.p.) injected into the mice twice daily at an interval of 12 hrs for the initial 2 days and once per day on day 3-5 (Tremblay et al., “Neuroprotective effects of cystamine in aged parkinsonian mice,” Neurobiol Aging. 27:862-870 (2006)). CS (20 mg/kg/d and 75 mg/kg/day were injected alone for 14 days.
After treatment for 14 days, the animals were sacrificed by decapitation. Tissues were quickly removed from the brain on a Petri dish placed on ice using laboratory microscope (Chan et al., “Development of a high resolution three-dimensional surgical atlas of the murine head for strains 129S1/SvImJ and C57Bl/6J using magnetic resonance imaging and micro-computed tomography,” Neuroscience. 144:604-615 (2007)). Bilateral corpus striatum stored at −80° C. until used for HPLC analysis. Bilateral substantia nigra were immediately homogenized using an Ultrasonic Cell Disruptor (Biologics, Model 150 V/T), and which were centrifuged. The supernatant was used for the estimation of various enzyme activities.
The concentration of BDNF was measured by an ABC-ELISA method, according to the manufacturer's protocol (Beyotime Institute of Biotechnology). […] OD value and BDNF concentration are proportional to the standard curve obtained the standard BDNF concentrations. Data are represented as pg/mg protein.
A general note: In an ELISA, binding on a coated surface is turned into a signal by an enzyme label.

For series [7], the system named is striatal dopamine (DA) concentration. The series can be described thus: Assay of striatal dopamine (DA) by HPLC. In kind it is in vivo, mice. The conditions noted are these: mean±SD. The procedure:
as §1
Samples were processed blindly to the treatment conditions for HPLC analysis with electrochemical detector (ECD) using the method by Beyer (Bayer, et al., 2002). Bilaterally corpus striatum tissues were sonicated in 1 ml of pre-colded 0.4 N HClO4. The resulting homogenates were centrifuged twice for 12 min at 12000×g at 4° C. Mobile phase consisting of 0.035 mol/L anhydrous citric acid, 0.09 mol/L without Water-sodium acetate, 0.23 mmol/L sodium alkane sulfonate, 0.13 mmol/L EDTA, 10% methanol (pH4.7). Electrochemical conditions for the experiment were +0.50V. Separation was carried out at a flow rate of 1.0 ml/min. Samples (20 μl) were automatic injected and were quantified by comparison of the area under the curve (AUC) against reference standards. The concentrations of DA were expressed as ng/mg protein of the brain tissue. Protein content was determined in tissue supernatants by the method of Lowry using bovine serum albumin as a standard (Lowry et al., “Protein measurement with the Folin phenol reagent,” J Biol Chem. 193:265-275 (1951)).

[8] abbreviates: C20 mg alone (cysteamine 20 mg/kg/d, no MPTP).
[9] abbreviates: C75 mg alone (cysteamine 75 mg/kg/d, no MPTP).

`CN1CC=C(c2ccccc2)CC1.Cl` [MPTP, 1-methyl-4-phenyl-1,2,3,6-tetrahydropyridine hydrochloride] gave an ROS in series [1] (MPTP alone, substantia nigra, control 13010 ± 261) of 20207 ± 203 MFI. In series [2] (MPTP alone, substantia nigra, control 52.55 ± 13.35), this compound returned an SOD of 57.73 ± 9.57 U/mg. Besides, the “level of GSH in the SNpc” value in series [3] (MPTP alone, control 3.52±1.44) was 0.55±0.36 nmol TNB/mg protein. The compound further yielded an MDA in series [4] (MPTP alone, substantia nigra, control 7.89 ± 0.65) of 10.84 ± 2.65 nmol/mg. Moreover, the “number of TH-IR nigral neurons” value in series [5] (MPTP alone (20 mg/kg i.p., 5 days), control 295.65±47.47) is 166.65±58.15. Also, the “BDNF concentration in substantia nigra” value in series [6] (MPTP alone, control 78.34±16.09) is on record as 39.55±7.82 pg/mg protein. In addition, the “striatal DA concentration” value in series [7] (MPTP alone, control 57.62±12.70) is reported as 26.38±6.47 ng/mg protein.

Turning to `NCCS` [cysteamine], the ROS in series [1] (C20 mg + MPTP (pretreatment)) is 17411 ± 589 MFI; in series [1] (setting [8]) it was 17460 ± 779 MFI; in series [1] (C75 mg + MPTP (pretreatment)) it was 17411 ± 362 MFI; in series [1] (setting [9]), 17980 ± 419 MFI; in series [1] (MPTP + C20 mg (simultaneous)), 19539 ± 431 MFI; in series [1] (MPTP + C75 mg (simultaneous)) it was 21976 ± 489 MFI. The SOD in series [2] (C20 mg + MPTP (pretreatment)) is recorded as 62.11 ± 4.74 U/mg; in series [2] (setting [8]), 58.88 ± 17.66 U/mg; in series [2] (C75 mg + MPTP (pretreatment)) it was 58.53 ± 5.82 U/mg; in series [2] (setting [9]), 59.13 ± 10.66 U/mg; in series [2] (MPTP + C20 mg (simultaneous)) it was 66.77 ± 4.64 U/mg; in series [2] (MPTP + C75 mg (simultaneous)), 59.58 ± 2.24 U/mg. The “level of GSH in the SNpc” value in series [3] (pretreatment with low dose cysteamine (20 mg/kg/d) + MPTP) stood at 3.16±1.28 nmol TNB/mg protein. For the same compound, the MDA is given as 8.25 ± 0.90 nmol/mg in series [4] (C20 mg + MPTP (pretreatment)); 8.82 ± 2.44 nmol/mg in series [4] (setting [8]); 8.56 ± 1.08 nmol/mg in series [4] (C75 mg + MPTP (pretreatment)); 8.90 ± 2.14 nmol/mg in series [4] (setting [9]); 9.86 ± 0.91 nmol/mg in series [4] (MPTP + C20 mg (simultaneous)); 9.51 ± 0.57 nmol/mg in series [4] (MPTP + C75 mg (simultaneous)). Moreover, the “number of TH-IR nigral neurons” value is 262.45±32.75 in series [5] (cysteamine 20 mg/kg/d 4 days prior to and along with MPTP (CS20 mg/kg/d+MPTP)); 271.05±44.93 in series [5] (cysteamine 75 mg/kg/d alone, no MPTP); 172.10±42.69 in series [5] (cysteamine 75 mg/kg/d pretreatment + MPTP (CS75 mg/kg/d+MPTP)); 179.5±68.11 in series [5] (simultaneous treatment MPTP+CS20 mg/kg/d); 174.05±45.78 in series [5] (simultaneous treatment MPTP+CS75 mg/kg/d). For the same compound, the “BDNF concentration in substantia nigra” value in series [6] (high dose cysteamine (75 mg/kg/d) + MPTP) is recorded as 55.43±12.15 pg/mg protein; in series [6] (low dose cysteamine (20 mg/kg/d) + MPTP), 74.22±7.79 pg/mg protein; in series [6] (low dose cysteamine (20 mg/kg/d) alone, no MPTP), 103.36±30.48 pg/mg protein. Moreover, the “reversal of MPTP-induced decrease of BDNF” value in series [6] (simultaneous administration of cysteamine (20 or 75 mg/kg/d) with MPTP, both P>0.05) is reported as “did not reverse the decrease of BDNF by MPTP”. Further, the “striatal DA concentration” value in series [7] (cysteamine 20 mg/kg/d 4 days before and along with MPTP) is reported as 47.96±10.57 ng/mg protein; in series [7] (cysteamine 75 mg/kg/d pretreatment + MPTP), 25.65±7.71 ng/mg protein; in series [7] (cysteamine 75 mg/kg/day alone, no MPTP), 32.22±4.71 ng/mg protein; in series [7] (simultaneous treatment cysteamine 20 mg/kg/d during MPTP), 36.27±16.42 ng/mg protein; in series [7] (simultaneous treatment cysteamine 75 mg/kg/day during MPTP), 25.08±8.10 ng/mg protein.
